Tests used:
[1] = Rate of dissolution in H2O at 25° C. of rebaudioside A polymorph and amorphous forms; format: physicochemical
Excerpt: The purification of rebaudioside A by crystallization as described above results in the formation of at least three different polymorphs: Form 1: a rebaudioside A hydrate; Form 2: an anhydrous rebaudioside A; Form 3: a rebaudioside A solvate. In addition to the at least three polymorph forms of rebaudioside A, the purification of rebaudioside A may result in the formation of an amorphous form of rebaudioside A, Form 4. The aqueous organic solution and temperature of the purification process influence the resulting polymorph and amorphous forms in the substantially pure rebaudioside A composition. FIGS. 1-5 are exemplary powder x-ray diffraction (XRPD) scans of the polymorph and amorphous forms of rebaudioside A: Form 1 (hydrate), Form 2 (anhydrate), Form 3A (methanol solvate), Form 3B (ethanol solvate), and Form 4 (amorphous), respectively.

[2] = format: physicochemical
Method: A solution of rebaudioside A (>97% pure by HPLC) was prepared in double distilled water (12.5 gm in 50 mL, 25% concentration) by stirring the mixture at 40° C. for 5 minutes. An amorphous form of rebaudioside A was formed by immediately using the clear solution for spray drying with the Lab-Plant spray drier SD-04 instrument (Lab-Plant Ltd., West Yorkshire, U.K.). The solution was fed through the feed pump into the nozzle atomizer which atomized it into a spray of droplets with the help of a constant flow of nitrogen/air. […] This dry powder (11-12 g, H2O 6.74%) was discharged continuously from the drying chamber and was collected in a bottle.

| Substance | Rate of dissolution in H2O at 25° C. ([1]; per 60 minutes) | Rate of dissolution in H2O at 25° C. ([1]; per 5 minutes) | solubility in water at room temperature [2] [%] |
| --- | --- | --- | --- |
| rebaudioside A [Form 1] | Very low (<0.2%/ %/60 minutes | – | – |
| rebaudioside A [Form 2] | – | Intermediate (<30%/ %/5 minutes | – |
| rebaudioside A [Form 3] | – | High (>30%/5 %/5 minutes | – |
| rebaudioside A [Form 4] | – | High (>35%/5 %/5 minutes | > 35.0 |
